{"source": "patent US20060030562A1", "about": "“Use of an inhibitor of cathepsin-S-or-B to treat or prevent chronic obstructive pulmonary disease” (AVENTIS PHARMACEUTICALS INC., priority 2003, published 2006)", "format_in_all_cases": "in vivo", "key": {"[1]": {"test_system": "CC10-rtTA-IFN-γ transgene (+) mice", "experiment": "IFN-γ-induced BAL and tissue inflammation", "settings": "transgene (+) mice on dox 2 weeks", "description": "Mice were euthanized, the trachea was isolated by blunt dissection, and tubing was secured in the airway. Two volumes of 1 mL of PBS with 0.1% BSA were then instilled and gently aspirated and pooled. Each BAL fluid sample was centrifuged, and the supernatants were stored in −70° C. until used The levels of IFN-γ were determined using a commercial ELISA (R&D Systems Inc., Minneapolis, Minn., USA) as per the manufacturer's instructions.\n(§1) Animals were sacrificed via cervical dislocation, a median sternotomy was performed, and right heart perfusion was accomplished with calcium- and magnesium-free PBS to clear the pulmonary intravascular space. The lungs were then fixed to pressure (25 cm) with neutral buffered 10% formalin, fixed overnight in 10% formalin, embedded in paraffin, sectioned at 5 μm and stained. Hematoxylin and eosin (H&E) stains were performed in the Research Histology Laboratory of the Department of Pathology at Yale University School of Medicine."}, "[2]": {"test_system": "CC10-rtTA-IFN-γ transgene (+) mice", "experiment": "IFN-γ-induced emphysema (lung volume, chord length, histology, compliance) in transgenic mice", "settings": "transgene (+) mice on dox, Z-VAD-fmk 3 μg/kg/day I.P., 14150 10 mg/kg/day by gavage, CA074 10 mg/Kg/day, leupeptin 15 mg/kg I.P., vs vehicle", "source_text": "(§2) CC10-rtTA-IFN-γ mice that had been generated in our laboratory and bred for at least 10 generations onto a Balb/c background were used in these studies. These are dual transgene positive animals in which the reverse tetracycline transactivator (rtTA) drives the expression of the murine IFN-γ gene in a lung-specific and externally regulatable fashion. The transgene in these mice is activated by adding doxycycline (dox) to the animal's drinking water. These mice were maintained as dual transgene (+) heterozygotes (refered to as transgene (+) hereafter).\n(§3) CC 10-rtTA-IFN-γ mice and littermate controls were maintained on normal water until they were 4-6 weeks old.\nas §1\nIn brief, the trachea was cannulated, the lungs were degassed and the lungs and heart were removed en bloc and inflated with PBS at 25 cm of pressure. The size of the lung was evaluated via volume displacement. Compliance was calculated as the change in volume divided by the change in pressure."}, "[3]": {"test_system": "CC10-rtTA-IFN-γ transgene (+) mice", "experiment": "Lung mRNA encoding cathepsins and MMPs (RT-PCR, real-time RT-PCR)", "settings": "transgene (+) mice on dox 2 weeks"}, "[4]": {"test_system": "CC10-rtTA-IFN-γ transgene (+) mice", "experiment": "IFN-γ-induced lung cell apoptosis (TUNEL) in transgenic mice", "settings": "for IFN-γ-induced apoptosis (TUNEL): transgene (+) mice on dox, 14150 10 mg/kg/day by gavage, CA074 10 mg/Kg/day, leupeptin 15 mg/kg I.P., vs vehicle", "source_text": "as §2, §3\nEnd labeling of exposed 3′-OH ends of DNA fragments in paraffin embedded tissue was undertaken with the TUNEL in situ cell death detection kit AP (Roche Diagnostics, Calif., USA) using the instructions provided by the manufacturer. After staining, 20 fields of alveoli were randomly chosen and 2000 nuclei were counted. The labeled cells were expressed as percentage of total nuclei."}}, "note": "“Also recorded” adds a separate entry of the source. Peptide text beside a SMILES is read from it. * marks the point of attachment. Cbz = O=C(OCc1ccccc1)*; CH2F = FC*", "data": [{"smiles": "COC(=O)C[C@H](NC(=O)[C@H](C)NC(=O)[C@@H](NC(=O)OCc1ccccc1)C(C)C)C(=O)CF", "note": "[Z-VAD-fmk] (Cbz-Val-Ala-Asp(OMe)-CH2F)", "values": [{"measurement": "IFN-γ-induced BAL total cell, neutrophil, lymphocyte and macrophage alterations and tissue inflammation", "setting": "[1]", "value": "markedly ameliorated"}, {"measurement": "IFN-γ-induced emphysema (lung volume, chord length, alveolar histology, compliance)", "setting": "[2]", "value": "decreased the emphysema generating effects of IFN-γ"}, {"measurement": "IFN-γ-induced emphysema (lung volume, chord length, alveolar histology, compliance)", "setting": "[2]; listed as Z-VAD-fink", "value": "only partially abrogated"}, {"measurement": "IFN-γ-induced increase in mRNA encoding cathepsin B, cathepsin S and MMPs-2 and -14", "setting": "[3]", "value": "markedly ameliorated"}, {"measurement": "levels of mRNA encoding cathepsin H and MMPs-9 and -12", "setting": "[3]", "value": "not similarly altered"}, {"measurement": "decrease of the levels of IFN-γ-induced apoptosis", "setting": "[4]; transgene (+) mice on dox 2 weeks, Z-VAD-fmk 3 μg/kg/day I.P. vs vehicle", "value": "≥ 85", "unit": "%"}]}, {"smiles": "CC(=O)N[C@@H](CC(C)C)C(=O)N[C@@H](CC(C)C)C(=O)N[C@H](C=O)CCCNC(=N)N", "note": "[leupeptin]", "values": [{"measurement": "IFN-γ-induced increase in mRNA encoding cathepsin B, cathepsin S and MMPs-2 and -14", "setting": "[3]", "value": "decreased"}, {"measurement": "MMP-9 mRNA induction", "setting": "[3]", "value": "induced in am leupeptin-dependent fashion"}]}, {"smiles": "CC[C@H](NC(=O)[C@H](CS(=O)(=O)CC(C)C)NC(=O)N1CCOCC1)C(=O)c1nc2ccccc2o1", "note": "[compound 14150]", "values": [{"measurement": "IFN-γ-induced emphysema (lung volume, chord length, alveolar histology, compliance)", "setting": "[2]", "value": "significant decreases; also recorded: significantly inhibited"}, {"measurement": "IFN-γ-induced apoptosis (TUNEL)", "setting": "[4]", "value": "significant decreases; also recorded: significantly inhibited"}]}, {"smiles": "CCCNC(=O)[C@H]1O[C@@H]1C(=O)N[C@H](C(=O)N1CCC[C@H]1C(=O)O)[C@@H](C)CC", "note": "(relative stereo) [CA074, N-(L-3-trans-propylcarbamoyl-oxirane-2-carbonyl)-L-isoleucyl-L-proline]", "values": [{"measurement": "IFN-γ-induced emphysema (lung volume, chord length, alveolar histology, compliance)", "setting": "[2]", "value": "significant decreases"}, {"measurement": "IFN-γ-induced apoptosis (TUNEL)", "setting": "[4]", "value": "significant decreases"}]}]}
